# Measured values reported in patent US20240262842A1, “SMALL MOLECULE INHIBITORS OF KRAS G12C MUTANT” (Merck Sharp & Dohme LLC, priority 2021, published 2024).
# Like-named read-outs stand apart in the source and are kept apart here.
# Experiments:
# [1] = molecular target: biotinylated KRAS G12C protein (GMP-PNP loaded) and GST-tagged Ras binding domain of c-RAF (Homo sapiens, UniProt P01116, C118S/C51S/C80L/G12C); test: RAS:RAF-RBD binding assay (TR-FRET); conditions: 30-minute incubation of compound with KRAS G12C before RAF-RBD; Table 4; read-out: IC50
# [2] = molecular target: T1, interaction between GMPPNP-bound recombinant K-Ras4B G12C mutant protein and cRAF RAS-binding domain (cRAF-RBD) (Homo sapiens, UniProt P01116, G12C); test: Inhibitory activity on interaction between KRAS G12C and cRAF (Alpha technology)
# T1 construct: His-tag (N)
# How it was run: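 Alpha signal measured 1.5 h after adding cRAF-RBD (aa 50-132) and detection reagents to GMPPNP-bound KRAS G12C (aa 1-169) pretreated 1 h at 25° C with compound (pH 7.5 buffer). 0% inhibition = DMSO, 100% = GDP-loaded KRAS; IC50 by curve fit.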
# MIA PaCa-2 cells = test: Growth inhibition activity on KRAS-G12C mutant cell line (CellTiter-Glo 3D); assay type: cell-based, human; conditions: Homo sapiens, MIA PaCa-2, 72 h, MIA PaCa-2, 3-day culture with compound
# How it was run: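 IC50 (nM) derived from inhibition of luminescence (CellTiter-Glo 3D) relative to compound-free wells. Cells were seeded in U-bottom plates, grown 1 day, then exposed to compound for 3 days at 37 °C with 0.2% final DMSO.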
# [3] = GMPPNP-bound KRAS G12C incubated with compound 25° C. 1 hour, Table 2-1, read-out: IC50
# T1 sequence (P01116 with tags, fused parts or gaps isoform P01116-2 G12C): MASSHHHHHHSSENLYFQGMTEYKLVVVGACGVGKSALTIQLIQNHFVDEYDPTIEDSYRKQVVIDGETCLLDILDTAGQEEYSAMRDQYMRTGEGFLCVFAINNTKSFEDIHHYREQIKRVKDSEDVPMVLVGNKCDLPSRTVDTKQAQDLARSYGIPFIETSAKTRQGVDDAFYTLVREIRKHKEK
# biotinylated KRAS G12C protein (GMP-PNP loaded) and GST-tagged Ras binding domain of c-RAF, sequence (P01116 with tags, fused parts or gaps isoform P01116-2 G12C/C51S/C80L/C118S): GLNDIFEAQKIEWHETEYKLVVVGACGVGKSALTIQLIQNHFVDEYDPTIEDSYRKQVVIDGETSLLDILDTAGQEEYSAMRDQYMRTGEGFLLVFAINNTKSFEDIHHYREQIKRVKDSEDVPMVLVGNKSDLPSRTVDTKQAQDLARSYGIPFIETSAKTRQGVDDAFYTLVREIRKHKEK
smiles,measurement,setting,value
"COCc1nc2c3c(c(OC)cc2n1C)-c1cccn2c(C(=O)c4cc(F)c(NC(=O)/C=C/CN5CC[C@H](O)C5)c(F)c4)cc(c12)CCN3C [Example 289, mono(2-(3,5-difluoro-4-((E)-4-((3S)-3-hydroxy-pyrrolidin-1-ium-1-yl)but-2-enamido)benzoyl)-7-methoxy-10-(methoxy-methyl)-9,12-dimethyl-9,12,13,14-tetrahydro-imidazo[4″,5″:5′,6′]benzo-[1′,2′:2,3]azocino[4,5,6-hi]indolizin-11-ium) mono(2,2,2-trifluoro-acetate)]",IC50,[1],68.8 nM
"Cc1nc2c3c(c(C(F)(F)F)cc2n1C)-c1cccn2c(C(=O)c4cc(F)c(NC(=O)/C=C/CNC5(C)CCOCC5)c(F)c4)cc(c12)CCO3 [Example 267, mono((E)-2-(3,5-difluoro-4-(4-((4-methyltetrahydro-2H-pyran-4-yl)ammonio)-but-2-enamido)benzoyl)-9,10-dimethyl-7-(trifluoro-methyl)-13,14-dihydro-9H-imidazo[4″,5″:5′,6′]-benzo[1′,2′:2,3]oxocino-[4,5,6-hi]indolizin-11-ium)mono(2,2,2-trifluoro-acetate)]",IC50,[1],3.69 nM
"Cc1nc2c3c(c(C(F)(F)F)cc2n1C)-c1cccn2c(C(=O)c4cc(F)c(NC(=O)/C=C/CN5CC6(CCCOC6)C5)c(F)c4)cc(c12)CCO3 [Example 253, mono((E)-2-(4-(4-(6-oxa-2-azaspiro[3.5]nonan-2-ium-2-yl)but-2-enamido)-3,5-difluorobenzoyl)-9,10-dimethyl-7-(trifluorometh-yl)-13,14-dihydro-9H-imidazo[4″,5″:5′,6′]benzo-[1′,2′:2,3]oxocino[4,5,6-hi]indolizin-11-ium) mono-(2,2,2-trifluoroacetate)]",IC50,[1],24.8 nM
"Cc1nc2c3c(c(C(F)(F)F)cc2n1C)-c1cccn2c(C(=O)c4cc(F)c(NC(=O)/C=C/CN5C[C@H](O)[C@@H](F)C5)c(F)c4)cc(c12)CCO3 [Example 275, (3S,4S)-1-((E)-4-((4-(9,10-dimethyl-7-(trifluorometh-yl)-13,14-dihydro-9H-imidazo[4″,5″:5′,6′]benzo-[1′,2′:2,3]oxocino[4,5,6-hi]indolizine-2-carbonyl)-2,6-difluorophenyl)amino)-4-oxobut-2-en-1-yl)-3-fluoro-4-hydroxypyrrol-idin-1-ium 2,2,2-trifluoro-acetate]",IC50,[1],57.5 nM
Cc1nc2c3c(c(C(F)(F)F)cc2n1C)-c1cccn2c(C(=O)c4cc(F)c(NC(=O)/C=C/CN[C@@H]5CCCC[C@@H]5O)c(F)c4)cc(c12)CCO3 [Example 264],IC50,[1],7.34 nM
"Cc1nc2c3c(c(C(F)(F)F)cc2n1C)-c1cccn2c(C(=O)c4cc(F)c(NC(=O)/C=C/CNC5(C)COC5)c(F)c4)cc(c12)CC(C)O3 (single isomer, unassigned) [Example 273, mono((E)-2-(3,5-difluoro-4-(4-((3-methyloxetan-3-yl)ammonio)but-2-en-amido)benzoyl)-9,10,13-trimethyl-7-(trifluorometh-yl)-13,14-dihydro-9H-imidazo[4″,5″:5′,6′]benzo-[1′,2′:2,3]oxocino[4,5,6-hi]indolizin-11-ium) mono(2,2,2-trifluoro-acetate)]",IC50,[1],30.1 nM
"CN1CCc2cc(C(=O)c3cc(F)c(NC(=O)/C=C/CNC4(C)COC4)c(F)c3)n3cccc(c23)-c2c(C(F)(F)F)cc3nn(C)cc3c21 (single isomer, unassigned) [Example 282, (E)-N-(4-((4-(10,12-dimethyl-7-(trifluorometh-yl)-10,12,13,14-tetrahydro-indolizino[8′,1′:4,5,6]-azocino[2,3-e]indazole-2-carbonyl)-2,6-difluoro-phenyl)amino)-4-oxobut-2-en-1-yl)-3-methyloxetan-3-aminium 2,2,2-trifluoro-acetate]",IC50,[1],57.6 nM
"Cc1nc2c3c(c(OC(F)F)cc2n1C)-c1cccn2c(C(=O)c4cc(F)c(NC(=O)/C=C/CNC5(C)CC5)c(F)c4)cc(c12)CCN3C [Example 300, (E)-N-(4-(7-(difluoromethoxy)-9,10,12-trimethyl-9,12,13,14-tetrahydroimidazo[4″,5″:5′,6′]benzo[1′,2′:2,3]azocino[4,5,6-hi]indolizine-2-carbonyl)-2,6-difluorophenyl)-4-((1-methylcyclopropyl)amino)but-2-enamide]",IC50,[1],1.22 nM
"Cc1nc2c3c(c(C(F)(F)F)cc2n1C)-c1cccn2c(C(=O)c4cc(F)c(NC(=O)C=CCN5CCCC5C5(O)CC5)c(F)c4)cc(c12)CCO3 (centres unmarked) [Example 255, mono(2-(3,5-difluoro-4-((E)-4-((28)-2-(1-hydroxy-cyclopropyl)pyrrolidin-1-ium-1-yl)but-2-enamido)-benzoyl)-9,10-dimethyl-7-(trifluoromethyl)-13,14-dihydro-9H-imidazo-[4″,5″:5′,6′]benzo[1′,2′: 2,3]oxocino[4,5,6-hi]-indolizin-11-ium) mono-(2,2,2-trifluoroacetate)]",IC50,[1],11.7 nM
"Cc1nc2c3c(c(C(F)(F)F)cc2n1C)-c1cccn2c(C(=O)c4cc(F)c(NC(=O)/C=C/C5CCCN5)c(F)c4)cc(c12)CCO3 (single isomer, unassigned) [Example 250, (E)-N-(4-(9,10-dimethyl-7-(trifluoromethyl)-13,14-dihydro-9H-imidazo-[4″,5″:5′,6′]benzo[1′,2′: 2,3]oxocino[4,5,6-hi]-dolizine-2-carbonyl)-2,6-difluorophenyl)-3-(pyrrol-idin-2-yl)acrylamide]",IC50,[1],54.9 nM
"Cc1nc2c3c(c(C(F)(F)F)cc2n1C)-c1cccn2c(C(=O)c4cc(F)c(NC(=O)C(F)=CCN5CCCC5CO)c(F)c4)cc(c12)CCO3 [Example 294, mono(2-(3,5-difluoro-4-((Z)-2-fluoro-4-(2S)-2-(hydroxymethyl)pyrrol-idin-1-ium-1-yl)but-2-enamido)benzoyl)-9,10-dimethyl-7-(trifluorometh-yl)-13,14-dihydro-9H-imidazo[4″,5″:5′,6′]benzo-[1′,2′:2,3]oxocino[4,5,6-hi]indolizin-11-ium) mono(2,2,2-trifluoro-acetate)]",IC50,[1],59.6 nM
"Cc1nc2c3c(c(C(F)(F)F)cc2n1C)-c1cccn2c(C(=O)c4cc(F)c(NC(=O)/C=C/C5CCCN5)c(F)c4)cc(c12)CCO3 (single isomer, unassigned) [Example 251, (E)-N-(4-(9,10-dimethyl-7-(trifluoromethyl)-13,14-dihydro-9H-imidazo-[4″,5″:5′,6′]benzo[1′,2′: 2,3]oxocino[4,5,6-hi]-indolizine-2-carbonyl)-2,6-difluorophenyl)-3-(pyrrolidin-2-yl)acryl-amide]",IC50,[1],16.7 nM
"Cc1nc2c3c(c(C(F)(F)F)cc2n1C)-c1cccn2c(C(=O)c4cc(F)c(NC(=O)/C=C/CNC5(C)COC5)c(F)c4)cc(c12)CCN3C (single isomer, unassigned) [Example 71, (E)-N-(2,6-difluoro-4-(9,10,12-trimethyl-7-(trifluoromethyl)-9,12,13,14-tetrahydroimidazo[4″,5″:5′,6′]benzo[1′,2′:2,3]azocino[4,5,6-hi]indolizine-2-carbonyl)phenyl)-4-((3-methyloxetan-3-yl)amino)but-2-enamide]",IC50,[2]; [3],20.2 nM
same,IC50,MIA PaCa-2 cells; Table 3-1,9.6 nM
"CO[C@H]1CC[C@H](NC/C=C/C(=O)Nc2ccc(C(=O)c3cc4c5c(cccn35)-c3c(C(F)(F)F)cc5c(nc(C)n5C)c3OCC4)cc2)CC1 [Example 37, (E)-N-(4-(9,10-dimethyl-7-(trifluoromethyl)-13,14-dihydro-9H-imidazo[4″,5″:5′,6′]benzo[1′,2′:2,3]oxocino[4,5,6-hi]indolizine-2-carbonyl)phenyl)-4-(((1,4r)-4-methoxycyclohexyl)amino)but-2-enamide]",IC50,"[2]; GMPPNP-bound KRAS G12C incubated with compound 25° C. 1 hour, Table 2, read-out: IC50",40 nM
same,IC50,MIA PaCa-2 cells; Table 3,28 nM
"Cc1cnc2c3c(c(C(F)(F)F)cn12)-c1cccn2c(C(=O)c4cc(F)c(NC(=O)/C=C/CNC5(C)COC5)c(F)c4)cc(c12)CCN3C [Example 187, (E)-N-(4-(10,13-dimethyl-7-(trifluoromethyl)-14,15-dihydro-13H-imidazo[1″,2″:1′,2′]pyrido[3′,4′:2,3]azocino[4,5,6-hi]indolizine-2-carbonyl)-2,6-difluorophenyl)-4-((3-methyloxetan-3-yl)amino)but-2-enamide]",IC50,[2]; [3],36.4 nM
same,IC50,MIA PaCa-2 cells; Table 3-1,39 nM
"Cc1cc2c(nc(C)n2C)c2c1-c1cccc3c(C(=O)c4cc(F)c(NC(=O)/C=C/CN[C@H]5[C@@H]6COC[C@@H]65)c(F)c4)cn(c13)CCN2C [Example 143, (E)-4-(((1R,5S,6r)-3-oxa-bicyclo[3.1.0]hexan-6-yl)amino)-N-(2,6-difluoro-4-(6,8,9,11-tetramethyl-8,11,12,13-tetrahydro-imidazo[4″,5″:5′,6′]benzo-[1′,2′:5,6][1,4]diazocino-[7,8,1-hi]indole-2-carbon-yl)phenyl)but-2-enamide]",IC50,"[2]; IC50, GMPPNP-bound KRAS G12C incubated with compound 25° C. 1 hour, Table 2-1",17.8 nM
same,IC50,MIA PaCa-2 cells; Table 3-1,47.7 nM
